Reference: patent US6423376B1, “Tartaric acid diesters as biodegradable surfactants” (Air Products and Chemicals, Inc., priority 2000, dated 2002)

Tests used:
Assay type in all cases: physicochemical
[1] = Dynamic surface tension of aqueous solutions, maximum bubble pressure method; settings: for decrease in the limiting surface tension: in comparison to dipentyl-L-tartrate; for limiting γ (0.1 b/s) / limiting γ (1 b/s) / limiting γ (6 b/s) / limiting γ (20 b/s): lowest surface tension in water; for pC20: negative logarithm of molar concentration giving 52.1 dyne/cm at 0.1 b/s
Description: where R1 and R2 are independently a C4 to C6 alkyl group, but preferably are the same; provided that when the water-based composition is an ink, R1 and R2 are independently a C5 or C6 alkyl group. […] The maximum-bubble-pressure method of measuring surface tension is described in Langmuir 1986, 2, 428-432, which is incorporated by reference.
In the following Examples dynamic surface tension data were obtained for aqueous solutions of various compounds using the maximum bubble pressure method at bubble rates from 0.1 bubbles/second (b/s) to 20 b/s. […] In practical terms, high bubble rates correspond to high printing speeds in lithographic printing, high spray or roller velocities in coating applications, and rapid application rates for agricultural products.
Dynamic surface tension data were obtained for a 0.1 wt % aqueous solution of the 9.5 mole ethoxylate of nonylphenol using the maximum bubble pressure method at bubble rates from 0.1 bubbles/second (b/s) to 20 b/s.
(§1) Solutions of the materials of Examples 1-12 in distilled water were prepared. […] The pC20 value is defined as the negative logarithm of the molar concentration of surfactant required to decrease the surface tension of an aqueous solution to 52.1 dyne/cm, that is, 20 dyne/cm below that of pure water when the measurement is performed at 0.1 b/s. This value is a measure of the efficiency of a surfactant. […] In addition, the relative efficiency of surfactants can be obtained by comparing surface tension reduction of solutions containing the same amount of different surfactants. Such data is given for 0.1 wt % solutions of the tartrates at 1.0 and 6.0 bubbles/second (b/s). The solubility limit was determined by intersection of the linear portion of a surface tension/In concentration curve with the limiting surface tension as is described in many textbooks. The limiting surface tensions at 0.1, 1, 6 and 20 b/s represent the lowest surface tensions in water which can be achieved at the given surface creation rates for a given surfactant regardless of the amount of surfactant used and is used to evaluate the effectiveness of a surfactant. These values give information about the relative ability to a surfactant to reduce surface defects under near-equilibrium conditions (0.1 b/s) through very dynamic conditions (20 b/s). Lower surface tensions would allow the elimination of defects upon application of a formulation onto lower energy surfaces.

[2] = Solubility limit in water from surface tension/ln concentration curve; settings: in distilled water
Method: as §1

[3] = Foam test based upon ASTM D 1173-53; settings: 0.1 wt % solution
Description: The foaming properties of a 0.1 wt % solution of the comparative example (nonylphenol 9.5 mole ethoxylate) and various dialkyltartrates (diisopropyl-(D)-tartrate, dibutyl-L-tartrate. diisobutyl-DL-tartrate, di-sec-butyl-DL-tartrate, dipentyl-DL-tartrate, diisoamyl-DL-tartrate, di-(2-methyl-butyl)-DL-tartrate, dineopentyl-DL-tartrate, dihexyl-DL-tartrate, di-(4-methyl-2-pentyl)-DL-tartrate, dibenzyl-DL-tartrate and di-(2-ethyl-hexyl)-DL-tartrate) were examined using a procedure based upon ASTM D 1173-53. In this test, a 0.1 wt % solution of the surfactant is added from an elevated foam pipette to a foam receiver containing the same solution. The foam height is measured at the completion of the addition (“Initial Foam Height”) and the time required for the foam to dissipate at the air-liquid interface (“Time to 0 Foam”) is recorded. This test provides a comparison between the foaming characteristics of various surfactants. In general, in coatings, inks, adhesives and agricultural formulations, foam is undesirable because is complicates handling and can lead to coating and print defects, and to inefficient application of agricultural materials.

Compound	γ (0.1 wt % solution) (1 b/s) ([1]; 1 b/s) [Dyne/cm]	γ (0.1 wt % solution) (6 b/s) ([1]; 6 b/s) [Dyne/cm]	limiting γ (0.1 b/s) ([1]; 0.1 b/s) [Dyne/cm]	limiting γ (1 b/s) ([1]; 1 b/s) [Dyne/cm]	limiting γ (6 b/s) ([1]; 6 b/s) [Dyne/cm]	limiting γ (20 b/s) ([1]; 20 b/s) [Dyne/cm]	pC20 [1]	solubility limit [2]	initial foam [3] [cm]	time to zero foam ([3]; unit not given)	time to zero foam [3] [s]	further results
CC(C)CCOC(=O)C(O)C(O)C(=O)OCCC(C)C (racemic) [Example 6, Diisoamyl-DL-tartrate]	35.4	36.7	34.9	35.7	37.2	40.3	3.7	0.1 Weight %	0	0	–	decrease in the limiting surface tension ([1]; 20 b/s): 1.3 dyne/cm
CC(C)COC(=O)C(O)C(O)C(=O)OCC(C)C (racemic) [Example 3, Diisobutyl-DL-tartrate]	50.6	51.4	38.7	39.3	39.8	40.8	2.6	0.7 Weight %	0.5	–	0.3	–
CCCCC(CC)COC(=O)C(O)C(O)C(=O)OCC(CC)CCCC (racemic) [Example 12, Di(2-ethylhexyl)-DL-tartrate]	69.8	70.5	66.7	69.8	70.5	71.3	1.6	0.06 Weight %	0	0	–	limiting γ (0.1 b/s) at 5 wt. % ([1]; 5 wt. %, cloudy mixture, 0.1 b/s): 38.5 dyne/cm; limiting γ (1 b/s) at 5 wt. % ([1]; 5 wt. %, cloudy mixture, 1 b/s): 40.3 dyne/cm; limiting γ (6.0 b/s) at 5 wt. % ([1]; 5 wt. %, cloudy mixture, 6.0 b/s): 41.2 dyne/cm; limiting γ (20 b/s) at 5 wt. % ([1]; 5 wt. %, cloudy mixture, 20 b/s): 44.8 dyne/cm
CCCCOC(=O)C(O)C(O)C(=O)OCCCC (racemic) [Example 2, Dibutyl-L-tartrate]	–	–	–	–	–	–	–	1.1 Weight %	–	–	–	–
CC(C)OC(=O)C(O)C(O)C(=O)OC(C)C [Example 1, Diisopropyl-D-tartrate]	–	–	–	–	–	–	–	>5% Weight %	–	–	–	–
O=C(OCc1ccccc1)C(O)C(O)C(=O)OCc1ccccc1 (racemic) [Example 11, Dibenzyl-DL-tartrate]	67.8	70.0	64.0	68.1	69.8	72.5	1.0	0.05 Weight %	1.3	–	0.1	–
CC(C)CC(C)OC(=O)C(O)C(O)C(=O)OC(C)CC(C)C (racemic) [Example 10, Di(4-methyl-2-pentyl)-DL-tartrate]	42.2	46.8	41.3	49.9	56.1	68.2	3.7	0.02 Weight %	0.8	–	0.3	–
CCC(C)COC(=O)C(O)C(O)C(=O)OCC(C)CC (racemic) [Example 7, Di(2-methyl-butyl)-DL-tartrate]	39.0	39.8	35.6	36.0	36.0	38.5	3.2	0.1 Weight %	0	0	–	–
CC(C)(C)COC(=O)C(O)C(O)C(=O)OCC(C)(C)C (racemic) [Example 8, Dineopentyl-DL-tartrate]	38.7	39.8	35.1	35.5	36.1	38.4	3.5	0.2 Weight %	0	0	–	decrease in the limiting surface tension ([1]; 20 b/s): 3.2 dyne/cm
CCCCCCOC(=O)C(O)C(O)C(=O)OCCCCCC (racemic) [Example 9, Dihexyl-DL-tartrate]	59.0	65.9	40.5	59.0	65.9	70.0	3.8	0.01 Weight %	1.3	–	0.1	–
9.5 mole ethoxylate of nonylphenol [reference compound]	–	–	–	–	–	–	–	–	4.5	–	>300	Dynamic Surface Tension (0.1 b/s) ([1]; 0.1 wt % aqueous solution, 0.1 b/s): 33.2 dyne/cm; Dynamic Surface Tension (1 b/s) ([1]; 0.1 wt % aqueous solution, 1 b/s): 36.7 dyne/cm; Dynamic Surface Tension (6 b/s) ([1]; 0.1 wt % aqueous solution, 6 b/s): 44.3 dyne/cm; Dynamic Surface Tension (15 b/s) ([1]; 0.1 wt % aqueous solution, 15 b/s): 52.8 dyne/cm; Dynamic Surface Tension (20 b/s) ([1]; 0.1 wt % aqueous solution, 20 b/s): 56.2 dyne/cm
CCC(C)OC(=O)C(O)C(O)C(=O)OC(C)CC (racemic) [Example 4, Di-sec-butyl-DL-tartrate]	52.2	53.2	35.1	35.0	35.0	36.0	2.5	1.7 Weight %	1.7	–	0.4	–
